Test results as given in US7449545B2, “Antimicrobial bolisin peptides” (IPF Pharmaceuticals GmbH, priority 2001, dated 2008).
Like-named read-outs stand apart in the source and are kept apart here. Ends that are not written are not given here.

How the values were obtained:
Type in all cases: cell-based
[1] = system: Pseudomonas aeruginosa ATCC 9027; settings: complete growth inhibition not achieved
From the text: (§1) The bolisin analogues of the present invention were examined for their suitability as antibiotic therapeutical agents by means of various biological tests. Thus, the chemically synthesized peptides were examined for their antimicrobial effectiveness against three Gram-positive and three Gram-negative bacterial strains as well as against a yeast.
(§2) The following microorganisms were used: • Gram-positive: Staphylococcus aureus ATCC 25923 • Enterococcus faecalis ATCC 51299 (vancomycin-resistant) • Streptococcus pneumoniae DSM 11865 (penicillin-resistant) • Gram-negative: Escherichia coli ATCC 25922 • Pseudomonas aeruginosa ATCC 9027 • Klebsiella pneumoniae ATCC 10031 • Yeast: Candida albicans ATCC 10231
(§3) The antibiotic activity of bolisin analogues was examined by determining the minimum inhibition concentration. The minimum inhibition concentration of an analogue designates the lowest peptide concentration which is required to inhibit the growth of microorganisms completely after an incubation time of 18±2 h. This method allows to obtain a quantitative result about the antimicrobial potency of the peptides. These examinations were performed by analogy with the recommendations (M7-A3) edited by the NCCLS (National Committee for Clinical Laboratory Standards) by applying a dilution test in a liquid medium using chemically synthesized peptides (peptide sequences according to claims 1 to 3). Mueller Hinton Broth was used as the test medium according to the NCCLS recommendations unless indicated otherwise. […] The minimum inhibition concentrations are stated in [μg/ml].
(§4) A complete growth inhibition could not be achieved in this case. For determining the minimum inhibition concentration, the following microorganisms were used: • 1. Staphylococcus aureus ATCC 25923 • 2. Enterococcus faecalis ATCC 51299 (vancomycin-resistant) • 3. Streptococcus pneumoniae DSM 11865 (penicillin-resistant) • 4. Escherichia coli ATCC 25922 • 5. Pseudomonas aeruginosa ATCC 9027 • 6. Klebsiella pneumoniae ATCC 10031 • 7. Candida albicans ATCC 10231

[2] = system: Enterococcus faecalis ATCC 51299 (vancomycin-resistant); settings: ATCC 51299, 2 h
From the text: as §1, §2
as §3, with “The minimum inhibition concentration of an analogue designates the lowest peptide concentration which is required to inhibit the growth of microorganisms completely after an incubation time of 18±2 h.” left out
as §4

[3] = system: Staphylococcus aureus ATCC 25923; settings: ATCC 25923, 2 h
From the text: as §1, §2
as §3, with “The minimum inhibition concentration of an analogue designates the lowest peptide concentration which is required to inhibit the growth of microorganisms completely after an incubation time of 18±2 h.” left out
as §4

[4] = system: Escherichia coli ATCC 25922; settings: ATCC 25922, 2 h
From the text: as §1, §2
as §3, with “The minimum inhibition concentration of an analogue designates the lowest peptide concentration which is required to inhibit the growth of microorganisms completely after an incubation time of 18±2 h.” left out
as §4

[5] = system: Klebsiella pneumoniae ATCC 10031; settings: ATCC 10031, 2 h
From the text: as §1, §2
as §3, with “The minimum inhibition concentration of an analogue designates the lowest peptide concentration which is required to inhibit the growth of microorganisms completely after an incubation time of 18±2 h.” left out
as §4

[6] = system: Streptococcus pneumoniae DSM 11865 (penicillin-resistant); settings: DSM 11865, 2 h
From the text: as §1, §2
as §3, with “The minimum inhibition concentration of an analogue designates the lowest peptide concentration which is required to inhibit the growth of microorganisms completely after an incubation time of 18±2 h.” left out
as §4

[7] = system: Candida albicans ATCC 10231; settings: ATCC 10231, 2 h
From the text: as §1, §2
as §3, with “The minimum inhibition concentration of an analogue designates the lowest peptide concentration which is required to inhibit the growth of microorganisms completely after an incubation time of 18±2 h.” left out
as §4

[8] = half-concentrated Mueller Hinton Broth

Substance | peptide concentration giving 75% inhibition of growth (value in parentheses) ([1]; Mueller Hinton Broth) | minimum inhibition concentration [2] | minimum inhibition concentration [3] | minimum inhibition concentration [4] | minimum inhibition concentration [5] | minimum inhibition concentration [6] | minimum inhibition concentration [7] | peptide concentration giving 75% inhibition of growth (value in parentheses) [1, 8]
KLAKRRKWAWRIKYVIY [BOL-103, KLAKRRKWAWRIKYVIY] | (9.4) μg/ml | 37.5 µg/mL | 18.75 µg/mL | 18.75 µg/mL | 18.75 µg/mL | 37.5 µg/mL |  | 
KYIVYKIRSARKRRKALK-OH [BOL-84, KYIVYKIRSARKRRKALK] | (75) μg/ml | >300 µg/mL | >300 µg/mL | >300 µg/mL | 75 µg/mL | 300 µg/mL | 37.5 µg/mL | 
KYIVYKIRSAWKRSKALK-OH [BOL-85, KYIVYKIRSAWKRSKALK] | (37.5) μg/ml | 300 µg/mL | >300 µg/mL | >300 µg/mL | 150 µg/mL | 300 µg/mL | 75 µg/mL | 
KYIVYKIRWARKRRKALK-OH [BOL-87, KYIVYKIRWARKRRKALK] | (9.375) μg/ml | 37.5 µg/mL | 9.375 µg/mL | 18.75 µg/mL | 9.375 µg/mL | 9.375 µg/mL | 9.375 µg/mL | 
YIRYKIRSARKRRKALK-OH [BOL-14, YIRYKIRSARKRRKALK] |  | >300 µg/mL | 50 µg/mL | 37.5 µg/mL | 75 µg/mL | >300 µg/mL |  | (150) μg/ml
YIRYKRRSADKRRKALK-OH [BOL-16, YIRYKRRSADKRRKALK] |  | >300 µg/mL | 100 µg/mL | 75 µg/mL | 150 µg/mL | >300 µg/mL |  | (300) μg/ml
YIVRKIRSAWKRRKALK-OH [BOL-80, YIVRKIRSAWKRRKALK] | (18.75) μg/ml | >300 µg/mL | >300 µg/mL | >300 µg/mL | 150 µg/mL | >300 µg/mL | 37.5 µg/mL | 
YIVWKIRSADKRSKALK-OH [BOL-25, YIVWKIRSADKRSKALK] |  | >300 µg/mL | 150 µg/mL | 150 µg/mL | 200 µg/mL | >300 µg/mL |  | (150) μg/ml
YIVYKIRFAFKRRKAL [BOL-92, YIVYKIRFAFKRRKAL] | (37.5) μg/ml | 18.75 µg/mL | 18.75 µg/mL | 18.75 µg/mL | 12.5 µg/mL | 25 µg/mL |  | 
YIVYKIRFAFKRSKAL [BOL-91, YIVYKIRFAFKRSKAL] | (150) μg/ml | 37.5 µg/mL | 25 µg/mL | 25 µg/mL | 18.75 µg/mL | 37.5 µg/mL |  | 
YIVYKIRSADKRRKALK-OH [BOL-7, YIVYKIRSADKRRKALK] |  | >300 µg/mL | 75 µg/mL | 150 µg/mL | 300 µg/mL | >300 µg/mL |  | (75) μg/ml
YIVYKIRSADKRWKALK-OH [BOL-30, YIVYKIRSADKRWKALK] |  | >300 µg/mL | 100 µg/mL | 150 µg/mL | 300 µg/mL | >300 µg/mL |  | (300) μg/ml
YIVYKIRSAPKRSKALK-OH [BOL-21, YIVYKIRSAPKRSKALK] |  | >300 µg/mL | 75 µg/mL | 150 µg/mL | 200 µg/mL | >300 µg/mL |  | (150) μg/ml
YIVYKIRSARKRRKALK-OH [BOL-13, YIVYKIRSARKRRKALK] |  | 75 µg/mL | 18.75 µg/mL | 18.75 µg/mL | 18.75 µg/mL | 150 µg/mL |  | (9.375) μg/ml
YIVYKIRSARKRSKALK-OH [BOL-6, YIVYKIRSARKRSKALK] |  | 200 µg/mL | 37.5 µg/mL | 37.5 µg/mL | 37.5 µg/mL | 150 µg/mL |  | (9.375) μg/ml
YIVYKIRSAWKRSKALK-OH [BOL-29, YIVYKIRSAWKRSKALK] |  | 75 µg/mL | 9.375 µg/mL | 9.375 µg/mL | 50 µg/mL | 150 µg/mL |  | (18.75) μg/ml
YIVYKIRWADKRSKALK-OH [BOL-27, YIVYKIRWADKRSKALK] |  | 300 µg/mL | 75 µg/mL | 75 µg/mL | 150 µg/mL | 300 µg/mL |  | (150) μg/ml
YIVYKIRWAWKRSKAL [BOL-93, YIVYKIRWAWKRSKAL] | (37.5) μg/ml | 37.5 µg/mL | 25 µg/mL | 25 µg/mL | 25 µg/mL | 25 µg/mL |  | 
YIVYKIRWTWKRSKAL [BOL-97, YIVYKIRWTWKRSKAL] | (37.5) μg/ml | 18.75 µg/mL | 12.5 µg/mL | 18.75 µg/mL | 18.75 µg/mL | 18.75 µg/mL |  | 
YIVYKRRSADKRRKALK-OH [BOL-12, YIVYKRRSADKRRKALK] |  | >300 µg/mL | 18.75 µg/mL | 18.75 µg/mL | 200 µg/mL | >300 µg/mL |  | (300) μg/ml
YIVYKRRSARKRRKALK-OH [BOL-15, YIVYKRRSARKRRKALK] |  | >300 µg/mL | 18.75 µg/mL | 18.75 µg/mL | 75 µg/mL | >300 µg/mL |  | (150) μg/ml
YIVYKRRSARKRSKALK-OH [BOL-11, YIVYKRRSARKRSKALK] |  | >300 µg/mL | 37.5 µg/mL | 37.5 µg/mL | 150 µg/mL | >300 µg/mL |  | (150) μg/ml
